# Experiments:
# [1] = system: mink lung epithelial cells; assay: Mink lung epithelial cell growth measured by DNA synthesis without added TGF-β1 (agonist activity); type: cell-based
# Experimental: [Methyl-^3H]thymidine Incorporation—Mink lung epithelial cells grown on 24-well clustered dishes were incubated with various concentrations of TGF-β1 in the presence and absence of peptide β1^25 (41-65) or with various concentrations of peptide β1^25 (41-65)-CA, and peptide β1^25 (41-65)-BSA in DMEM containing 0.1% fetal calf serum. After 16 hr at 37° C., the cells were pulsed with 1 μCi/ml of [methyl-^3H]thymidine for 4 hr. The cells were then washed twice with 1 ml of 10% trichloroacetic acid and once with 0.5 ml of ethanol:ether (2:1, v/v). The cells were then dissolved in 0.4 ml of 0.2 N NaOH and counted with a liquid scintillation counter.
# [2] = system: type V TGF-β receptor (TβR-V); assay: 125I-TGF-β1-affinity labeling of cell-surface type V TGF-β receptor in mink lung epithelial cells; type: binding; details: peptide at 2.3 μM
# Experimental: (§1) ^125I-TGF-β1-affinity labeling of cell-surface TGF-β receptors in mink lung epithelial cells. Mink lung epithelial cells grown on 60-mm Petri dishes were incubated with 0.1 nM […] the presence of various concentrations of peptide β1^25 (41-65) or peptide β3^25 (41-65) in binding buffer. After 2.5 hr at 0° C., ^125I-TGF-β1-affinity labeling was carried out in the presence of DSS as described. The ^125I-TGF-β1-affinity-labeled TGF-β receptors were analyzed by 5% SDS-polyacrylamide gel electrophoresis under reducing conditions and autoradiography.
# [3] = Observation of deleterious effects in treated animals; type: in vivo, pig, rabbit; details: topical, any animal
# Experimental: (§2) Burn wound model. Four pigs weighing 20-25 kg were anesthetized by intramuscular injection of ketamine (5 mg/kg), strenil® (cazaporonum) (20 mg/kg) and atropine (5 mg/kg). Six uniform burn wounds (110° C., 30 sec) were then made symmetrically on the back of each pig using a modified soldering iron (Ref. 15) with a flat contact area of 20 cm^2. […] After wounding, a thin layer of Intrasite®) gel containing either peptide β1^25 (41-65), buffer or nothing else was applied to the wounds. All wounds were dressed with paraffin gauze. The dressing was changed every two days for the first 10 days and twice a week for the next 30 days. Gel comprising peptide β1^25 (41-65) and control gel were applied and wound measurements were made at each dressing change.
# Excision wound model. Four pigs received intramuscular injection of ketamine, strenil® and atropine as described above. Six excision injuries were generated by removing full-thickness sections of skin (3×3 cm) from standardized sites on the back of each animal using a scapel. Three rabbits, were anesthetized by intramuscular injection of ketamine (5 mg/kg). Three excision injuries were produced in each by removing full-thickness sections of skin (0.5×1 cm) from each ear. […]
# [4] = system: PAI-1 expression; assay: PAI-1 expression in mink lung epithelial cells (Northern blot); type: cell-based; details: 0.25 ρM and 2.5 ρM TGF-β1
# Experimental: RNA Analysis—Mink lung epithelial cells were grown overnight in 12-well clustered dishes in DMEM containing 10% fetal calf serum. The medium was then changed to DMEM containing 0.1% fetal calf serum and the cells were incubated with 0.25 and 2.5 ρM TGF-β1 in the presence of various concentrations of peptide β1^25 (41-65) for 2.5 hr. Total cellular RNA was extracted using RNAzol B (Tel-Test Inc.) according to the manufacturer's protocol. RNA was electrophoresed in 1.2% agarose-formaldehyde gel and transferred to Duralon-UV membranes using 10×SSC. The membranes were probed at 42° C. with a random-primed, radiolabeled 1-kb fragment from the Hind III and NeoI digests of PAI-1 cDNA and glyceraldehyde-3-phosphate dehydrogenase (“GAPDH”) cDNA. The blots were washed with 0.1×SSC containing 0.1% SDS at room temperature.
# [5] = system: burn wounds; assay: Pig burn wound model; type: in vivo; details: for re-epithelialization / healing rate versus vehicle: after post-burn day 10; for scarring versus vehicle-only control wounds: post-burn day 35 (and 41)
# Experimental: (§3) Preparation of IntraSite® gel containing TGF-β peptantagonist (peptide TGF-beta antagonist). 1 ml of sterile 6 mM peptide β1^25 (41-65) in phosphate buffered saline or 1 ml of sterile phosphate buffered saline was vigorously mixed with 3 ml of IntraSite® gel using two 10 ml syringes connected with a three-way connector. […] However, 1.5 mM of peptide β1^25 (41-65) was used throughout the experiments described below.
# as §2
# Assessment of wound healing. Wound healing was assessed by evaluating the rates of wound re-epithelization and contraction. The open wound area and the area enclosed by the normal hair bearing skin were measured using the macrophotography technique (Ref. 14). The healing rate was monitored every two days for the first 10 days and twice a week for 30 more days. Wound reepithelialization as a percent of the original wound size was calculated using the following formula:
# [formula] where E=rate of re-epithelialization in percent; An=area enclosed by the normal hair bearing skin on a given post-burn day; Ao=area of open wound on the same day as was measured. Wound contraction was calculated using the following formula:
# [formula] where C=rate of wound contraction in percent; Al=wound area as measured immediately following the burn or excision injury; An=area enclosed by normal hair bearing skin.
# (§4) Measurement of scar. The volumes of scar tissue were estimated by multiplying their thickness by the size of the scar on post-burn day 41 in pigs and post-excision day 10 in rabbits.
# [6] = system: type I, type II, and type III TGF-β receptors; assay: 125I-TGF-β1-affinity labeling of other cell-surface TGF-β receptor types in mink lung epithelial cells; type: binding; details: peptide at 2.3 μM
# Experimental: as §1
# [7] = system: ear excision wounds; assay: Rabbit ear excision wound model; type: in vivo; details: for scar formation: post-excision day 10
# Experimental: as §3
# Excision wound model. Four pigs received intramuscular injection of ketamine, strenil® and atropine as described above. Six excision injuries were generated by removing full-thickness sections of skin (3×3 cm) from standardized sites on the back of each animal using a scapel. Three rabbits, were anesthetized by intramuscular injection of ketamine (5 mg/kg). Three excision injuries were produced in each by removing full-thickness sections of skin (0.5×1 cm) from each ear. After wounds, a thin layer of IntraSite® gel containing peptide β1^25 (41-65) was applied to alternating wounds on each animal and IntraSite® gel+buffer was applied to the other half. The excision wounds were then dressed with a paraffin gauze. For pig experiments, the dressing was changed every two days for the first 10 days and twice a week for the next 30 days. For rabbit experiments, the dressing was changed for the first 3 days. Gel containing peptide β1^25 (41-65) or control gel was applied at each dressing change.
# as §4
# [8] = 1.5 mM in gel, topical, listed as TGF-β peptantagonist
sequence,measurement,setting,value
ANFCLGPCPYIWSLDTQYSKVLALY [peptide β1^25 (41-65)],effect on DNA synthesis in the absence of TGF-β1,[1]; 0.1 μM to 36 μM peptide,did not have an effect
same,reversal of growth inhibition induced by 0.2 μM β1^25 (41-65)-CA,"[1]; 10 μM peptide, data not shown",abolished
same,inhibition of 125I-TGF-β1-affinity labeling of the type V TGF-β receptor,[2],almost completely abolished
same,deleterious effects,[3],no apparent deleterious effects
same,blocking of PAI-1 expression stimulated by TGF-β1,[4],completely blocked
same,wound contraction versus vehicle only,"[5]; 1.5 mM in gel, topical",less contraction
same,re-epithelialization / healing rate versus vehicle,"[5]; 1.5 mM in gel, topical",rapid re-epithelialization
same,re-epithelialization / healing rate versus vehicle,[5]; [8],healed faster
same,re-epithelialization complete,"[5]; 1.5 mM in gel, topical, n=4",26±2 post-burn day
same,wound contraction versus vehicle only,[5]; [8],contracted significantly
same,accelerating wound healing and reducing scarring,"[5]; 0.75 and 1.5 mM peptide in gel, topical",effective
same,open wound,[5]; post-burn day 23,very little open wound
same,wound contraction,"[5]; post-burn day 33, 1.5 mM in gel, n=4",50±4%
same,open wound,[5]; post-burn day 34,very little open wound
same,scarring versus vehicle-only control wounds,[5],less scarring
same,scarring versus vehicle-only control wounds,[5]; listed as TGF-β peptantagonist,less scar formation
same,volume of scar tissue,[5]; post-burn day 41,0.07±0.02 cm^3
same,inhibition of 125I-TGF-β1-affinity labeling of other TGF-β receptor types,[6],30-40%
same,scar formation,[7],attenuated scar formation
same,volume of scar tissue,"[7]; post-excision day 10, n=6, estimated",0.005±0.01 cm^3
same,scar formation,[7]; listed as TGF-β-peptantagonist,reduced scarring
